These results are taken from US20140243395A1, “SPRAY SYSTEM FOR PRODUCTION OF A MATRIX FORMED IN SITU” (ETHRIS GMBH, priority 2011, published 2014).

Series [1] in a line: viscosity of solvents, rotational viscometer. The settings on record: 25° C. The format is physicochemical.
The conditions of series [2]: in vivo; cited from earlier work.
The subject of another series is mesothelial cells. The settings on record: human. The method, then: In addition to 10% fetal calf serum (PPA Laboratories, Austria) an epidermal growth factor (5 ng/ml, Sigma-Aldrich, Germany) and hydrocortisone (400 ng/ml, Sigma-Aldrich, Germany) were added to the medium. Furthermore, the cells were passaged at a confluence of about 80% and used for tests up to a passage of 20.
The cytotoxicity of the solvent was determined by an ATP-based assay (ATPlite, Perkin Elmer). […] After the incubation period, the medium was sucked off, the cells were washed once with PBS, 50 μl PBS per well was added, and the cell viability was determined according to the manufacturer's instructions. […] For each point in time, the concentration of the solvent was plotted against the measured cell viability (mean values±standard deviation from n=4 runs) and a non-linear standard function was adapted: […]
The LD50 values were taken from the estimated values of the plotted regression curve. It is the concentration at which a cell viability of still 50% could be measured.
In addition, the influence of the solvent on the metabolic cell viability was studied for a period of 11 hours. Metabolic cell viability is determined by the ATP value of the cells, which is a measure of viability. […]

For series [3] the following is noted: solubility of PLGA in the solvent, Matschke et al. 2002; cited from earlier work.
In another series the test system is rat. The settings on record: i.v., 40% DMI in isotonic saline solution (v/v); cited from earlier work.
The next series relates to mouse. The note with it: i.v., 20% solution; cited from earlier work.

With `CCOC(=O)[C@H](C)O` [Ethyl l-lactate], the “η (kinematic viscosity)” value in series [1] is recorded as 2.74 mPas.

Regarding “Alteplase: recombinantly produced t-PA protein”, the half-life in plasma in series [2] is 3 to 6 min.

For the molecule glycerol formal, the “tolerance (LD50) higher by a factor compared to tetraglycol” value in the series on mesothelial cells came out at 400. The PLGA solubility in series [3] is on record as 33%. Moreover, in series [1], the “η (kinematic viscosity)” value worked out at 14.4 mPas.

For the molecule `CO[C@H]1CO[C@H]2[C@@H]1OC[C@H]2OC` [DMI, Dimethyl isosorbide], the PLGA solubility in series [3] is 41%. Besides, in series [1], the “η (kinematic viscosity)” value worked out at 8.16 mPas. The LD50 in the series with rat is 5.4 g/kg body weight; in the series with mouse it was 6.9 g/kg body weight.

For “tetrahydrofurfuryl alcohol polyethyleneglycol [tetraglycol]”, in series [1], the “η (kinematic viscosity)” value was 16.6 mPas.

For `CC(=O)OCC(COC(C)=O)OC(C)=O` [Triacetin], the PLGA solubility in series [3] is 35%. For the same molecule, the “η (kinematic viscosity)” value in series [1] is listed as 18.75 mPas.
